Assay results: ChEMBL document CHEMBL2440076, “New triarylpyrazoles as broad-spectrum anticancer agents: design, synthesis, and biological evaluation” (Eur J Med Chem, 2013)

What was measured:
SF-539 = experiment: Growth inhibition of human SF539 cells assessed as cell growth at 10 uM after 48 hrs by sulforhodamine B assay; assay type: functional; conditions: SF-539, 48 h, read-out: Activity
A549 = experiment: Growth inhibition of human A549/ATCC cells assessed as cell growth at 10 uM after 48 hrs by sulforhodamine B assay; assay type: functional; conditions: A549, 48 h, read-out: Activity
MDA-MB-231 [1] = experiment: Growth inhibition of human MDA-MB-231 cells after 48 hrs by sulforhodamine B assay; assay type: functional; conditions: MDA-MB-231, 48 h
CAKI-1 = experiment: Growth inhibition of human CAKI-1 cells after 48 hrs by sulforhodamine B assay; assay type: functional; conditions: CAKI-1, 48 h
TK-10 [2] = experiment: Growth inhibition of human TK10 cells after 48 hrs by sulforhodamine B assay; assay type: functional; conditions: TK-10, 48 h
HOP-62 = experiment: Growth inhibition of human HOP62 cells after 48 hrs by sulforhodamine B assay; assay type: functional; conditions: HOP-62, 48 h
NCI-H226 = experiment: Growth inhibition of human NCI-H226 cells after 48 hrs by sulforhodamine B assay; assay type: functional; conditions: NCI-H226, 48 h
T47D [3] = experiment: Growth inhibition of human T47D cells after 48 hrs by sulforhodamine B assay; assay type: functional
[4] = Growth inhibition of human NCI-ADR-RES cells assessed as cell growth at 10 uM after 48 hrs by sulforhodamine B assay; assay type: functional; conditions: read-out: Activity
HCT-15 [5] = experiment: Growth inhibition of human HCT15 cells assessed as cell growth at 10 uM after 48 hrs by sulforhodamine B assay; assay type: functional; conditions: HCT-15, 48 h, read-out: Activity
Malme-3M = experiment: Growth inhibition of human MALME-3M cells after 48 hrs by sulforhodamine B assay; assay type: functional
MOLT-4 [6] = experiment: Growth inhibition of human MOLT4 cells after 48 hrs by sulforhodamine B assay; assay type: functional; conditions: MOLT-4, 48 h
SK-MEL-28 = experiment: Growth inhibition of human SK-MEL-28 cells assessed as cell growth at 10 uM after 48 hrs by sulforhodamine B assay; assay type: functional; conditions: SK-MEL-28, 48 h, read-out: Activity
MDA-MB-435 [7] = experiment: Growth inhibition of human MDA-MB-435 cells assessed as cell growth at 10 uM after 48 hrs by sulforhodamine B assay; assay type: functional; conditions: MDA-MB-435, 48 h, read-out: Activity
A498 = experiment: Growth inhibition of human A498 cells assessed as cell growth at 10 uM after 48 hrs by sulforhodamine B assay; assay type: functional; conditions: A498, 48 h, read-out: Activity
PC-3 = experiment: Growth inhibition of human PC3 cells after 48 hrs by sulforhodamine B assay; assay type: functional, cell-based; conditions: PC-3, 48 h
MDA-MB-435 [8] = experiment: Growth inhibition of human MDA-MB-435 cells after 48 hrs by sulforhodamine B assay; assay type: functional, cell-based; conditions: MDA-MB-435, 48 h
MDA-MB-231 [9] = experiment: Growth inhibition of human MDA-MB-231 cells assessed as cell growth at 10 uM after 48 hrs by sulforhodamine B assay; assay type: functional; conditions: MDA-MB-231, 48 h, read-out: Activity
RPMI-8226 = experiment: Growth inhibition of human RPMI8226 cells assessed as cell growth at 10 uM after 48 hrs by sulforhodamine B assay; assay type: functional; conditions: RPMI-8226, 48 h, read-out: Activity
MDA-MB-468 = experiment: Growth inhibition of human MDA-MB-468 cells assessed as cell growth at 10 uM after 48 hrs by sulforhodamine B assay; assay type: functional; conditions: MDA-MB-468, 48 h, read-out: Activity
[10] = Growth inhibition of human NCI-ADR-RES cells after 48 hrs by sulforhodamine B assay; assay type: functional
HOP-92 = experiment: Growth inhibition of human HOP92 cells assessed as cell growth at 10 uM after 48 hrs by sulforhodamine B assay; assay type: functional; conditions: HOP-92, 48 h, read-out: Activity
HCT-15 [11] = experiment: Growth inhibition of human HCT15 cells after 48 hrs by sulforhodamine B assay; assay type: functional; conditions: HCT-15, 48 h
T47D [12] = experiment: Growth inhibition of human T47D cells assessed as cell growth at 10 uM after 48 hrs by sulforhodamine B assay; assay type: functional; conditions: read-out: Activity
HL-60(TB) = experiment: Growth inhibition of human HL-60(TB) cells assessed as cell growth at 10 uM after 48 hrs by sulforhodamine B assay; assay type: functional; conditions: HL-60, 48 h, read-out: Activity
TK-10 [13] = experiment: Growth inhibition of human TK10 cells assessed as cell growth at 10 uM after 48 hrs by sulforhodamine B assay; assay type: functional; conditions: TK-10, 48 h, read-out: Activity
[14] = Growth inhibition of human Hs 578T cells after 48 hrs by sulforhodamine B assay; assay type: functional
MOLT-4 [15] = experiment: Growth inhibition of human MOLT4 cells assessed as cell growth at 10 uM after 48 hrs by sulforhodamine B assay; assay type: functional; conditions: MOLT-4, 48 h, read-out: Activity
SN12C = experiment: Growth inhibition of human SN12C cells after 48 hrs by sulforhodamine B assay; assay type: functional
COLO 205 = experiment: Growth inhibition of human COLO205 cells after 48 hrs by sulforhodamine B assay; assay type: functional; conditions: COLO 205, 48 h
HCT-116 = experiment: Growth inhibition of human HCT116 cells after 48 hrs by sulforhodamine B assay; assay type: functional; conditions: HCT-116, 48 h
SW-620 = experiment: Growth inhibition of human SW620 cells assessed as cell growth at 10 uM after 48 hrs by sulforhodamine B assay; assay type: functional; conditions: SW-620, 48 h, read-out: Activity
[16] = read-out: LC50 (the source's name)

O=C(Nc1cccc(-n2cc(-c3ccncc3)c(-c3ccc(Cl)c(O)c3)n2)c1)Nc1ccc(Cl)c(Cl)c1
growth at 10 µM (SF-539): 37% | growth at 10 µM (A549): 4.51% | GI50 (MDA-MB-231 [1]): 1.18 µM | LC50 (MDA-MB-231 [1]): > 32.5 µM | TGI (MDA-MB-231 [1]): 8.33 µM | GI50 (CAKI-1): 1.11 µM | TGI (CAKI-1): 14.3 µM | CC50 (CAKI-1; [16]): > 32.5 µM | GI50 (TK-10 [2]): 1.91 µM | TGI (TK-10 [2]): > 32.5 µM | CC50 (TK-10 [2]; [16]): > 32.5 µM | GI50 (HOP-62): 2.08 µM | TGI (HOP-62): 17.6 µM | CC50 (HOP-62; [16]): > 32.5 µM | GI50 (NCI-H226): 1.51 µM | TGI (NCI-H226): > 32.5 µM | CC50 (NCI-H226; [16]): > 32.5 µM | GI50 (T47D [3]): 1.55 µM | TGI (T47D [3]): 17.9 µM | CC50 (T47D [3]; [16]): > 32.5 µM | growth at 10 µM [4]: 20.9% | growth at 10 µM (HCT-15 [5]): 19.8% | GI50 (Malme-3M): 1.19 µM | LC50 (concentration killing 50% of starting cells) (Malme-3M): > 32.5 µM | TGI (Malme-3M): 8.1 µM | GI50 (MOLT-4 [6]): 1.38 µM | TGI (MOLT-4 [6]): > 32.5 µM | CC50 (MOLT-4 [6]; [16]): > 32.5 µM | growth at 10 µM (SK-MEL-28): 24.6% | growth at 10 µM (MDA-MB-435 [7]): 9.98% | growth at 10 µM (A498): 31.1% | GI50 (PC-3): 0.834 µM | IC50 (PC-3): 0.83 µM | TGI (PC-3): > 32.5 µM | CC50 (PC-3; [16]): > 32.5 µM | GI50 (MDA-MB-435 [8]): 1.1 µM | IC50 (MDA-MB-435 [8]): 1.1 µM | TGI (MDA-MB-435 [8]): 6.05 µM | CC50 (MDA-MB-435 [8]; [16]): > 32.5 µM | growth at 10 µM (MDA-MB-231 [9]): -0.72% | growth at 10 µM (RPMI-8226): 7.89% | growth at 10 µM (MDA-MB-468): 2.25% | GI50 [10]: 2.74 µM | TGI [10]: > 32.5 µM | CC50 [10, 16]: > 32.5 µM | growth at 10 µM (HOP-92): -20.2% | GI50 (HCT-15 [11]): 1.23 µM | LC50 (HCT-15 [11]): > 32.5 µM | TGI (HCT-15 [11]): 29.6 µM | growth at 10 µM (T47D [12]): 23% | growth at 10 µM (HL-60(TB)): -6.98% | growth at 10 µM (TK-10 [13]): 7.15% | GI50 [14]: 0.785 µM | TGI [14]: 3.15 µM | CC50 [14, 16]: > 32.5 µM | growth at 10 µM (MOLT-4 [15]): 7.64% | GI50 (SN12C): 1.31 µM | TGI (SN12C): > 32.5 µM | CC50 (SN12C; [16]): > 32.5 µM | GI50 (COLO 205): 3.96 µM | LC50 (concentration killing 50% of cells) (COLO 205): 22.7 µM | TGI (COLO 205): 9.49 µM | GI50 (HCT-116): 1.19 µM | TGI (HCT-116): 5.73 µM | CC50 (HCT-116; [16]): > 32.5 µM | growth at 10 µM (SW-620): 24.5%
